Reference: PMC3115495 (Bioorganic & medicinal chemistry letters, 2011)
pKi: −log10 of the molar value.

Experiments:
[1] = biological target: KOR-1 (Homo sapiens, UniProt P41145); assay: ^125I-opioid saturation studies in KOR-1/CHO cells; format: binding; details: at the highest concentrations of radioligands used
[2] = biological target: mu opioid receptor (MOR-1) (UniProt P42866); assay: radioligand binding
Chain of mu opioid receptor (MOR-1) (P42866 whole entry): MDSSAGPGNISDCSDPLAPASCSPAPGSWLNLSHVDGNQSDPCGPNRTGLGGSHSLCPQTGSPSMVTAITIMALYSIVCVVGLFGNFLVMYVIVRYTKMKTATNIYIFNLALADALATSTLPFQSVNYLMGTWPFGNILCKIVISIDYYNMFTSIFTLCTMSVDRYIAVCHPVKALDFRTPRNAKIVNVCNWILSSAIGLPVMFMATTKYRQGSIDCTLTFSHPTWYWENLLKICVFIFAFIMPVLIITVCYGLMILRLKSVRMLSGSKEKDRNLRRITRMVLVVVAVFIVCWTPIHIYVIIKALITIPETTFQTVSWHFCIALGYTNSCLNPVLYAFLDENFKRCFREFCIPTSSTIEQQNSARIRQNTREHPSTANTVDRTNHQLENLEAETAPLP

Chain of KOR-1 (P41145 whole entry, species assumed): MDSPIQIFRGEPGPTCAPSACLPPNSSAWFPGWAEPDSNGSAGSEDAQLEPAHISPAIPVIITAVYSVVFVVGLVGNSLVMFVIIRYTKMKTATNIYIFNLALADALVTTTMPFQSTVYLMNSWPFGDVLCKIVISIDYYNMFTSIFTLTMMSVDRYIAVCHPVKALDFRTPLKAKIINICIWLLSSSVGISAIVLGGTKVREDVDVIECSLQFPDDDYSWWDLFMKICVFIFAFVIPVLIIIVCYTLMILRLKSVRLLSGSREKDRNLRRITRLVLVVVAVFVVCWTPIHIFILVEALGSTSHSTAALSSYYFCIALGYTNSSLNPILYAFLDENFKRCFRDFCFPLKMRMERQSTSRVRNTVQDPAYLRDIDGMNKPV

**Q.** How did the “Specific binding in KOR-1/CHO cells” value [1] turn out when `CN1CC[C@]23c4c5ccc(O)c4O[C@H]2[C@H](NC(=O)c2cccc([125I])c2)CC[C@@]3(O)[C@H]1C5` [^125IBOxyA (20)] was run?
**A.** No specific

**Q.** With “[-DAla^2,MePhe^4,Gly(ol)^5]enkephalin (peptide)” as the compound, how does the pKi [2] read?
**A.** 8.81
